Among the data in patent publication US10428083B2, “Heterocyclylmethyl-thienouracile as antagonists of the adenosine-A2B-receptor” (BAYER PHARMA AKTIENGESELLSCHAFT, priority 2015, dated 2019) are IC50 values, retold here.

The target in this assay is human adenosine A2b receptor (Homo sapiens (Human), UniProt P29275). The assay can be described thus: Cellular in vitro reporter gene test for A2b receptor activity (CHO-K1, CRE-luciferase, NECA stimulation). The settings on record: recombinant CHO-K1 cell line, CRE-luciferase reporter, antagonism of EC50 concentration of NECA; in some cases means of several determinations, rounded to two significant figures; read-out: A2b receptor IC50. Type of assay: cell-based. The procedure, abridged: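 CHO-K1 cells with CRE-driven luciferase; antagonists co-incubated with NECA at its EC50, determined in a pre-experiment on each test day. Luciferase read by luminescence 3 h after NECA addition.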
Sequence of human adenosine A2b receptor (P29275 whole entry): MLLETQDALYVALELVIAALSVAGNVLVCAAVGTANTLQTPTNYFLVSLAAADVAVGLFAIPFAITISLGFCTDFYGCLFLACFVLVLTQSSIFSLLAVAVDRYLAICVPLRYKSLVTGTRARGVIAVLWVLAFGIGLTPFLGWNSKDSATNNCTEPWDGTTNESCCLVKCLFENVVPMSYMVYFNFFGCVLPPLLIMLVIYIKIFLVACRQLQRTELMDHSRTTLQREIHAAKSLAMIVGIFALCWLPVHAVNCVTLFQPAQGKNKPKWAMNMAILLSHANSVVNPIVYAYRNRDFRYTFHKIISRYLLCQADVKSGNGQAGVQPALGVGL
In general terms: A reporter such as luciferase makes a cellular process visible.
In general, IC50 refers to the concentration that inhibits the measured activity by half. In the case of `COCCn1c(=O)n(CCc2ccccc2)c(=O)c2c(C(F)(F)F)c(CN3CCCC3=O)sc21` [Example 5, 1-(2-Methoxyethyl)-6-[(2-oxopyrrolidin-1-yl)methyl]-3-(2-phenylethyl)-5-(trifluoromethyl)thieno[2,3-d]pyrimidine-2,4(1H,3H)-dione], the IC50 is 8.4 nM.
On to `COCCn1c(=O)n(C(C)C(F)(F)F)c(=O)c2c(C)c(CN3CCNC3=NC#N)sc21` (single isomer, unassigned) [Example 511, [1-{[1-(2-Methoxyethyl)-5-methyl-2,4-dioxo-3-(1,1,1-trifluoropropan-2-yl)-1,2,3,4-tetrahydrothieno[2,3-d]pyrimidin-6-yl]methyl}imidazolidin-2-ylidene]cyanamide], for which the IC50 turned out to be 110 nM.
For `Cc1c(CN2CCNC2=O)sc2c1c(=O)n(CC(F)(F)F)c(=O)n2CC1CCO1` (racemic) [Example 206, 5-Methyl-1-(oxetan-2-ylmethyl)-6-[(2-oxoimidazolidin-1-yl)methyl]-3-(2,2,2-trifluoroethyl)thieno[2,3-d]pyrimidine-2,4(1H,3H)-dione], the IC50 was determined as 11 nM.
Take `Cc1c(CN2CCNC2=O)sc2c1c(=O)n(CC(C)C)c(=O)n2CC1CCOC1` (racemic) [Example 90, 3-Isobutyl-5-methyl-6-[(2-oxoimidazolidin-1-yl)methyl]-1-(tetrahydrofuran-3-ylmethyl)thieno[2,3-d]pyrimidine-2,4(1H,3H)-dione (racemate)]: the IC50 amounted to 12 nM.
The figure for `COCCn1c(=O)c2c(C)c(CN3CCNC3=NC(=O)OC)sc2n(CCOC)c1=O` [Example 386, Methyl [1-{[1,3-bis(2-methoxyethyl)-5-methyl-2,4-dioxo-1,2,3,4-tetrahydrothieno[2,3-d]pyrimidin-6-yl]methyl}imidazolidin-2-ylidene]carbamate] is 16 nM; for `CCn1c(=O)c2c(C)c(CN3CCNS3(=O)=O)sc2n(CCC(F)(F)F)c1=O` [Example 27, 6-[(1,1-Dioxido-1,2,5-thiadiazolidin-2-yl)methyl]-3-ethyl-5-methyl-1-(3,3,3-trifluoropropyl)thieno[2,3-d]pyrimidine-2,4(1H,3H)-dione] it is 2.7 nM; for `COCCn1c(=O)n(CC(C)OC)c(=O)c2c(C)c(CN3CCNC3=O)sc21` (single isomer, unassigned) [Example 235, 1-(2-Methoxyethyl)-3-(2-methoxypropyl)-5-methyl-6-[(2-oxoimidazolidin-1-yl)methyl]thieno[2,3-d]pyrimidine-2,4(1H,3H)-dione] it is 38 nM.
As for `CCn1c(=O)c2c(C)c(CN3CCNC3=S)sc2n(CCCCF)c1=O` [Example 30, 3-Ethyl-1-(4-fluorobutyl)-5-methyl-6-[(2-thioxoimidazolidin-1-yl)methyl]thieno[2,3-d]pyrimidine-2,4(1H,3H)-dione], the IC50 came out at 5 nM.
`Cc1c(CN2CCNC2=O)sc2c1c(=O)n(CC(F)F)c(=O)n2CC1CCO1` (single isomer, unassigned) [Example 218, 3-(2,2-Difluoroethyl)-5-methyl-1-(oxetan-2-ylmethyl)-6-[(2-oxoimidazolidin-1-yl)methyl]thieno[2,3-d]pyrimidine-2,4(1H,3H)-dione]: the IC50 came out at 22 nM.
As for `[2H]C([2H])(c1sc2c(c1C)c(=O)n([C@H](C)C(F)(F)F)c(=O)n2CCOC)N1CCNC1=O` [Example 501, 1-(2-Methoxyethyl)-5-methyl-6-[(2-oxoimidazolidin-1-yl)(dideutero)methyl]-3-[(2R)-1,1,1-trifluoropropan-2-yl]thieno[2,3-d]pyrimidine-2,4(1H,3H)-dione], the 50% inhibitory concentration (IC50) was 43 nM.
To `COCCn1c(=O)c2c(C)c(CN3CCNC3=O)sc2n(CC2CCCO2)c1=O` (single isomer, unassigned) [Example 325, 3-(2-Methoxyethyl)-5-methyl-6-[(2-oxoimidazolidin-1-yl)methyl]-1-(tetrahydrofuran-2-ylmethyl)thieno[2,3-d]pyrimidine-2,4(1H,3H)-dione] belongs 65 nM; to `Cc1c(CN2CCNC2=O)sc2c1c(=O)n(C(C)C)c(=O)n2CCCF` [Example 314, 1-(3-Fluoropropyl)-3-isopropyl-5-methyl-6-[(2-oxoimidazolidin-1-yl)methyl]thieno[2,3-d]pyrimidine-2,4(1H,3H)-dione], 4.7 nM; to `COC(C)Cn1c(=O)c2c(C)c(Cn3nc[nH]c3=O)sc2n(CCC(F)(F)F)c1=O` (racemic) [Example 440, 3-(2-Methoxypropyl)-5-methyl-6-[(5-oxo-4,5-dihydro-1H-1,2,4-triazol-1-yl)methyl]-1-(3,3,3-trifluoropropyl)thieno[2,3-d]pyrimidine-2,4(1H,3H)-dione], 23 nM.
Regarding `COCCn1c(=O)n(CC(F)(F)F)c(=O)c2c(C)c(Cn3nc[nH]c3=O)sc21` [Example 433, 1-(2-Methoxyethyl)-5-methyl-6-[(5-oxo-4,5-dihydro-1H-1,2,4-triazol-1-yl)methyl]-3-(2,2,2-trifluoroethyl)thieno[2,3-d]pyrimidine-2,4(1H,3H)-dione], the IC50 worked out at 58 nM.
In the case of `CCn1c(=O)c2c(C)c(CN3CCCCC3=O)sc2n(CCC(F)(F)F)c1=O` [Example 12, 3-Ethyl-5-methyl-6-[(2-oxopiperidin-1-yl)methyl]-1-(3,3,3-trifluoropropyl)thieno[2,3-d]pyrimidine-2,4(1H,3H)-dione], the IC50 was determined as 12 nM.
The figure for `CCn1c(=O)c2c(C)c(CN3CCNC3=O)sc2n(CCCCF)c1=O` [Example 52, 3-Ethyl-1-(4-fluorobutyl)-5-methyl-6-[(2-oxoimidazolidin-1-yl)methyl]thieno[2,3-d]pyrimidine-2,4(1H,3H)-dione] is 6.6 nM; for `COCCn1c(=O)n(CC(F)F)c(=O)c2c(C)c(CN3CCNC3=S)sc21` [Example 43] it is 7.7 nM.
In the case of `Cc1c(Cn2nc[nH]c2=O)sc2c1c(=O)n(CC(C)(C)C)c(=O)n2CC1CCCO1` (racemic) [Example 429, 3-(2,2-Dimethylpropyl)-5-methyl-6-[(5-oxo-4,5-dihydro-1H-1,2,4-triazol-1-yl)methyl]-1-(tetrahydrofuran-2-ylmethyl)thieno[2,3-d]pyrimidine-2,4(1H,3H)-dione], the IC50 worked out at 75 nM.
To `Cc1c(Cn2[nH]ccc2=O)sc2c1c(=O)n(C(C)C)c(=O)n2CC1CCCO1` (racemic) [Example 134, 3-Isopropyl-5-methyl-6-[(5-oxo-2,5-dihydro-1H-pyrazol-1-yl)methyl]-1-(tetrahydrofuran-2-ylmethyl)thieno[2,3-d]pyrimidine-2,4(1H,3H)-dione] belongs 30 nM.
As to `CCOCCn1c(=O)c2c(C)c(CN3CCNC3=O)sc2n(CCCF)c1=O` [Example 411, 3-(2-Ethoxyethyl)-1-(3-fluoropropyl)-5-methyl-6-[(2-oxoimidazolidin-1-yl)methyl]thieno[2,3-d]pyrimidine-2,4(1H,3H)-dione], the IC50 is 53 nM.
On to `Cc1c(CN2CCNC2=S)sc2c1c(=O)n(CC(F)F)c(=O)n2CC1CCCO1` (racemic) [Example 162, 3-(2,2-Difluoroethyl)-5-methyl-1-(tetrahydrofuran-2-ylmethyl)-6-[(2-thioxoimidazolidin-1-yl)methyl]thieno[2,3-d]pyrimidine-2,4(1H,3H)-dione], for which the IC50 is 7.9 nM.
On to `Cc1c(CN2CCNC2=S)sc2c1c(=O)n(C(C)C)c(=O)n2CCCF` [Example 298, 1-(3-Fluoropropyl)-3-isopropyl-5-methyl-6-[(2-thioxoimidazolidin-1-yl)methyl]thieno[2,3-d]pyrimidine-2,4(1H,3H)-dione], for which the half-inhibitory concentration (IC50) amounted to 2.4 nM.
On to `COCCn1c(=O)c2c(C)c(CN3CCNC3=NC(=O)OC)sc2n(CC2CCO2)c1=O` (single isomer, unassigned) [Example 388, Methyl [1-{[3-(2-methoxyethyl)-5-methyl-1-(oxetan-2-ylmethyl)-2,4-dioxo-1,2,3,4-tetrahydrothieno[2,3-d]pyrimidin-6-yl]methyl}imidazolidin-2-ylidene]carbamate], for which the IC50 came out at 33 nM.
The figure for `CCOCCn1c(=O)c2c(C)c(CN3CCNC(=O)C3=O)sc2n(CCCF)c1=O` [Example 492, 6-[(2,3-Dioxopiperazin-1-yl)methyl]-3-(2-ethoxyethyl)-1-(3-fluoropropyl)-5-methylthieno[2,3-d]pyrimidine-2,4(1H,3H)-dione] is 250 nM.
As for `CCn1c(=O)c2c(C(F)F)c(CN3CCNC3=S)sc2n(CCOC)c1=O` [Example 45, 5-(Difluoromethyl)-3-ethyl-1-(2-methoxyethyl)-6-[(2-thioxoimidazolidin-1-yl)methyl]thieno[2,3-d]pyrimidine-2,4(1H,3H)-dione], the IC50 is 12 nM.
As to `CCn1c(=O)c2c(C)c(Cn3cc[nH]c3=O)sc2n(CC2CCCO2)c1=O` (single isomer, unassigned) [Example 243, 3-Ethyl-5-methyl-6-[(2-oxo-2,3-dihydro-1H-imidazol-1-yl)methyl]-1-(tetrahydrofuran-2-ylmethyl)thieno[2,3-d]pyrimidine-2,4(1H,3H)-dione], the IC50 amounted to 14 nM.
The figure for `COCCn1c(=O)n(CCc2ccccc2)c(=O)c2c(C(F)(F)F)c(CN3CCOC3=O)sc21` [Example 22, 1-(2-Methoxyethyl)-6-[(2-oxo-1,3-oxazolidin-3-yl)methyl]-3-(2-phenylethyl)-5-(trifluoromethyl)thieno[2,3-d]pyrimidine-2,4(1H,3H)-dione] is 24 nM.
Regarding `Cc1c(CN2CCNC2=O)sc2c1c(=O)n(CC(C)C)c(=O)n2CC(F)F` [Example 191, 1-(2,2-Difluoroethyl)-3-isobutyl-5-methyl-6-[(2-oxoimidazolidin-1-yl)methyl]thieno[2,3-d]pyrimidine-2,4(1H,3H)-dione], the IC50 was 3.3 nM.
To `COCCn1c(=O)c2c(C)c(Cn3[nH]ccc3=O)sc2n(CCOC)c1=O` [Example 288, 1,3-Bis(2-methoxyethyl)-5-methyl-6-[(5-oxo-2,5-dihydro-1H-pyrazol-1-yl)methyl]thieno[2,3-d]pyrimidine-2,4(1H,3H)-dione] belongs 140 nM.
